According to patent US10030047B2 (Hoffmann-La Roche Inc., priority 2015, dated 2018):

Tested on: A. baumannii strain ATCC17978
Test: 50% growth inhibitory concentration (IC50) determination, Iso-Sensitest broth
Format: cell-based
Conditions: Acinetobacter baumannii; A. baumannii ATCC17978; Iso-Sensitest medium; OD 600 nm over 16 h; read-out: IC50 ATCC17978
Procedure: The in vitro antimicrobial activity of the compounds was alternatively determined according to the following procedure:
The assay used a 10-points Iso-Sensitest broth medium to measure quantitatively the in vitro activity of the compounds against A. baumannii ATCC 17978.
Stock compounds in DMSO were serially twofold diluted (e.g. range from 50 to 0.097 μM final concentration) in 384 wells microtiter plates and inoculated with 49 μl the bacterial suspension in Iso-Sensitest medium to have a final cell concentration of ˜5×10^(5) CFU/ml in a final volume/well of 50 ul/well. Microtiter plates were incubated at 35±2° C.
Bacterial cell growth was determined with the measurement of optical density at λ=600 nm each 20 minutes over a time course of 16 h.
Growth inhibition was calculated during the logarithmic growth of the bacterial cells with determination of the concentration inhibiting 50% (IC50) and 90% (IC90) of the growth.
Tables 3, 4 and 5 provide the 50% growth inhibitory concentrations (IC50) in micromoles per liter of the compounds of present invention obtained against the A. baumannii strain ATCC17978.

Row | Structure (SMILES) | IC50 [µM]
1 | CN1C(=O)[C@H](CCCCN)NC(=O)[C@H](CCCN)NCc2ccccc2Sc2c(Cl)cc(-c3ccccc3)cc2CNC(=O)[C@@H]1Cc1c[nH]c2ccccc12 [Example 140, (12S,15S,18S)-15-(4-Amino-butyl)-18-(3-amino-propyl)-4-chloro-12-(1H-indol-3-ylmethyl)-13-methyl-6-phenyl-2-thia-10,13,16,19-tetraaza-tricyclo[19.4.0.0*3,8*]pentacosa-1(25),3,5,7,21,23-hexaene-11,14,17-trione] | 0.6
2 | CN1C(=O)[C@H](CCCCN)NC(=O)[C@H](CCCN)NCc2cc(-c3ccc(CN)cc3)ccc2Sc2c(Cl)cccc2CNC(=O)[C@@H]1Cc1c[nH]c2ccccc12 [Example 216, (12S,15S,18S)-15-(4-Amino-butyl)-23-(4-aminomethyl-phenyl)-18-(3-amino-propyl)-4-chloro-12-(1H-indol-3-ylmethyl)-13-methyl-2-thia-10,13,16,19-tetraaza-tricyclo[19.4.0.0*3,8*]pentacosa-1(25),3,5,7,21,23-hexaene-11,14,17-trione] | 0.7
3 | CN1C(=O)[C@H](CCCCN)NC(=O)[C@H](CCCN)NCc2cccnc2Sc2c(Cl)ccc(-c3ccc(OCC(O)CO)cc3)c2CNC(=O)[C@@H]1Cc1c[nH]c2ccccc12 (stereo partly drawn) [Example 240, (11S,14S,17S)-14-(4-Amino-butyl)-11-(3-amino-propyl)-25-chloro-22-[4-(2,3-dihydroxy-propoxy)-phenyl]-17-(1H-indol-3-ylmethyl)-16-methyl-2-thia-4,10,13,16,19-pentaaza-tricyclo[19.4.0.0*3,8*]pentacosa-1(25),3(8),4,6,21,23-hexaene-12,15,18-trione] | < 0.1
4 | CN1C(=O)[C@H](CCCCN)NC(=O)[C@H](CCCN)NCc2cc(Br)ccc2Sc2c(Cl)cccc2CNC(=O)[C@@H]1Cc1c[nH]c2ccccc12 [Example 206, (12S,15S,18S)-15-(4-Amino-butyl)-18-(3-amino-propyl)-23-bromo-4-chloro-12-(1H-indol-3-ylmethyl)-13-methyl-2-thia-10,13,16,19-tetraaza-tricyclo[19.4.0.0*3,8*]pentacosa-1(25),3,5,7,21,23-hexaene-11,14,17-trione] | 1.4
5 | CNCCCC[C@@H]1NC(=O)[C@H](CCCN)NCc2cccnc2Sc2c(Cl)cc(Cl)cc2CNC(=O)[C@H](Cc2c[nH]c3ccccc23)N(C)C1=O [Example 251, (11S,14S,17S)-11-(3-Amino-propyl)-23,25-dichloro-17-(1H-indol-3-ylmethyl)-16-methyl-14-(4-methylamino-butyl)-2-thia-4,10,13,16,19-pentaaza-tricyclo[19.4.0.0*3,8*]pentacosa-1(25),3(8),4,6,21,23-hexaene-12,15,18-trione] | < 0.1
6 | CN1C(=O)[C@H](CCCCN)NC(=O)[C@H](CCCN)NCc2ccccc2Sc2c(Cl)cc(-c3ccccc3Cl)cc2CNC(=O)[C@@H]1Cc1c[nH]c2ccccc12 [Example 141, (12S,15S,18S)-15-(4-Amino-butyl)-18-(3-amino-propyl)-4-chloro-6-(2-chloro-phenyl)-12-(1H-indol-3-ylmethyl)-13-methyl-2-thia-10,13,16,19-tetraaza-tricyclo[19.4.0.0*3,8*]pentacosa-1(25),3,5,7,21,23-hexaene-11,14,17-trione] | 1.3
7 | CN1C(=O)[C@H](CCCCN)NC(=O)[C@H](CCCN)NCc2ccc(-c3ccccc3)cc2Sc2c(Cl)cccc2CNC(=O)[C@@H]1Cc1c[nH]c2ccccc12 [Example 220, (12S,15S,18S)-15-(4-Amino-butyl)-18-(3-amino-propyl)-4-chloro-12-(1H-indol-3-ylmethyl)-13-methyl-24-phenyl-2-thia-10,13,16,19-tetraaza-tricyclo[19.4.0.0*3,8*]pentacosa-1(25),3,5,7,21,23-hexaene-11,14,17-trione] | 5.8
8 | CN1C(=O)[C@H](CCCCN)NC(=O)[C@H](CCCN)NCc2ccccc2Sc2c(-c3ccnc(C(F)(F)F)c3)ncc(Cl)c2CNC(=O)[C@@H]1Cc1c[nH]c2ccccc12 [Example 198] | 0.3
9 | CN1C(=O)[C@H](CCCCN)NC(=O)[C@H](CCCN)NCc2ccccc2Sc2c(-c3cccnc3)ncc(Cl)c2CNC(=O)[C@@H]1Cc1c[nH]c2ccccc12 [Example 194] | 3.3
10 | CN1C(=O)[C@H](CCCCN)NC(=O)[C@H](CCCN)NCc2cccnc2Sc2c(Cl)ccc(-c3ccc(S(=O)(=O)NCCO)cc3)c2CNC(=O)[C@@H]1Cc1c[nH]c2ccccc12 [Example 246, 4-[(11S,14S,17S)-14-(4-Amino-butyl)-11-(3-amino-propyl)-25-chloro-17-(1H-indol-3-ylmethyl)-16-methyl-12,15,18-trioxo-2-thia-4,10,13,16,19-pentaaza-tricyclo[19.4.0.0*3,8*]pentacosa-1(25),3(8),4,6,21,23-hexaen-22-yl]-N-(2-hydroxy-ethyl)-benzenesulfonamide] | < 0.1
11 | CN1C(=O)[C@H](CCCCN)NC(=O)[C@H](CCCN)NCc2cccnc2Sc2ccc(Br)nc2CNC(=O)[C@@H]1Cc1c[nH]c2ccccc12 [Example 197, (7S,10S,13S)-13-((1H-Indol-3-yl)methyl)-10-(4-aminobutyl)-7-(3-aminopropyl)-18-bromo-12-methyl-6,7,9,10,12,13,15,16-octahydrodipyrido[2,3-b:2′,3′-p][1,5,8,11,14]thiatetraazacycloheptadecine-8,11,14(5H)-trione] | 0.2
12 | CN1C(=O)[C@H](CCCCN)NC(=O)[C@H](CCCN)NCc2ccccc2Sc2c(ccc(Br)c2Cl)CNC(=O)[C@@H]1Cc1c[nH]c2ccccc12 [Example 168, (12S,15S,18S)-15-(4-Amino-butyl)-18-(3-amino-propyl)-5-bromo-4-chloro-12-(1H-indol-3-ylmethyl)-13-methyl-2-thia-10,13,16,19-tetraaza-tricyclo[19.4.0.0*3,8*]pentacosa-1(25),3,5,7,21,23-hexaene-11,14,17-trione] | < 0.4
13 | CN1C(=O)[C@H](CCCCN)NC(=O)[C@@H](CCCN)NCc2cccnc2Sc2c(ccc(-c3ccccc3)c2Cl)CNC(=O)[C@@H]1Cc1c[nH]c2ccccc12 [Example 126, (11R,14S,17S)-14-(4-Amino-butyl)-11-(3-amino-propyl)-25-chloro-17-(1H-indol-3-ylmethyl)-16-methyl-24-phenyl-2-thia-4,10,13,16,19-pentaaza-tricyclo[19.4.0.0*3,8*]pentacosa-1(25),3,5,7,21,23-hexaene-12,15,18-trione] | 30.3
14 | CN1C(=O)[C@H](CCCCN)NC(=O)[C@H](CCCN)NCc2ccccc2Sc2c(Cl)cc(-c3cccnc3)cc2CNC(=O)[C@@H]1Cc1c[nH]c2ccccc12 [Example 142, (12S,15S,18S)-15-(4-Amino-butyl)-18-(3-amino-propyl)-4-chloro-12-(1H-indol-3-ylmethyl)-13-methyl-6-pyridin-3-yl-2-thia-10,13,16,19-tetraaza-tricyclo[19.4.0.0*3,8*]pentacosa-1(25),3,5,7,21,23-hexaene-11,14,17-trione] | < 0.4
15 | CN1C(=O)[C@H](CCCCN)NC(=O)[C@H](CCCN)NCc2cc(-c3ccccc3)ccc2Sc2c(Cl)cccc2CNC(=O)[C@@H]1Cc1c[nH]c2ccccc12 [Example 207, (12S,15S,18S)-15-(4-Amino-butyl)-18-(3-amino-propyl)-4-chloro-12-(1H-indol-3-ylmethyl)-13-methyl-23-phenyl-2-thia-10,13,16,19-tetraaza-tricyclo[19.4.0.0*3,8*]pentacosa-1(25),3,5,7,21,23-hexaene-11,14,17-trione] | 9
16 | CN1C(=O)[C@H](CCCCN)NC(=O)[C@H](CCCN)NCc2ccccc2Sc2c(Cl)cc(Br)cc2CNC(=O)[C@@H]1Cc1c[nH]c2ccccc12 [Example 151, (12S,15S,18S)-15-(4-Amino-butyl)-18-(3-amino-propyl)-6-bromo-4-chloro-12-(1H-indol-3-ylmethyl)-13-methyl-2-thia-10,13,16,19-tetraaza-tricyclo[19.4.0.0*3,8*]pentacosa-1(25),3,5,7,21,23-hexaene-11,14,17-trione] | 0.2
17 | CN1C(=O)[C@H](CCC(N)=O)NC(=O)[C@H](CCCN)NCc2ccccc2Sc2c(cc(-c3ccccc3)cc2C(F)(F)F)CNC(=O)[C@@H]1Cc1c[nH]c2ccccc12 [Example 161, 3-[(11S,14S,17S)-11-(3-Amino-propyl)-17-(1H-indol-3-ylmethyl)-16-methyl-12,15,18-trioxo-23-phenyl-25-trifluoromethyl-2-thia-10,13,16,19-tetraaza-tricyclo[19.4.0.0*3,8*]pentacosa-1(25),3,5,7,21,23-hexaen-14-yl]-propionamide] | 6.8
18 | CN1C(=O)[C@H](CCCCN)NC(=O)[C@H](CCCN)NCc2cc(Br)cnc2Sc2ccccc2CNC(=O)[C@@H]1Cc1c[nH]c2ccccc12 [Example 236, (7S,10S,13S)-13-((1H-Indol-3-yl)methyl)-10-(4-aminobutyl)-7-(3-aminopropyl)-3-bromo-12-methyl-6,7,9,10,12,13,15,16-octahydrobenzo[b]pyrido[3,2-p][1,5,8,11,14]thiatetraazacycloheptadecine-8,11,14(5H)-trione] | 3.2
19 | CN1C(=O)[C@H](CCCCN)NC(=O)[C@H](CCCN)NCc2cccnc2Sc2ccnc(-c3cccnc3)c2CNC(=O)[C@@H]1Cc1c[nH]c2ccccc12 [Example 238, (7S,10S,13S)-13-((1H-Indol-3-yl)methyl)-10-(4-aminobutyl)-7-(3-aminopropyl)-12-methyl-17-(pyridin-3-yl)-6,7,9,10,12,13,15,16-octahydrodipyrido[2,3-b:3′,4′-p][1,5,8,11,14]thiatetraazacycloheptadecine-8,11,14(5H)-trione] | 5.6
